According to patent US20260125375A1 (Pfizer Inc., priority 2022, published 2026):
Like-named read-outs stand apart in the source and are kept apart here.

Legend:
[1] = target: T1, CBL-B (residues 36-427) (Homo sapiens, UniProt Q13191); test: Ligand Displacement Assay (LDA), HTRF competitive binding against BODIPY-labeled fluorescent tracer, CBL-B; conditions: geometric mean of the number of tests, read-out: CBL-B Ki (nM) GMean
T1 construct: Purified CBL-B (residues 36-427) and C-CBL (residues 46-435) proteins from baculovirus-infected insect cells; made in house; host or cells: baculovirus-infected insect cells
Procedure, shortened: (§1)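 Competition with a BODIPY fluorescent tracer was read by HTRF, each protein carrying an N-terminal biotinylated AviTag bound to Tb-streptavidin. Tracer KD values were set beforehand per protein; Ki derives from duplicate three-fold compound series ([…], 2% DMSO), averaged geometrically across tests.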

[2] = target: T2, C-CBL (Homo sapiens, UniProt P22681); test: Jurkat HiBit-IL2 assay (CBL-B KO), reporter cell line expressing C-CBL only; assay type: cell-based; conditions: geometric mean, read-out: CBL-B KO EC50 (nM) GMean
T2 construct: endogenous in cells; host or cells: Jurkat HiBit-IL2 reporter cells, CBL-B knocked out by CRISPR
Source text: (§2) Jurkat HiBit-IL2 Assay (WT, c-CBL KO, CBL-B KO)
(§3) The purpose of the Jurkat HiBit-IL2 assay is to evaluate the effect of the inhibition of CBL-B and/or C-CBL on TCR/CD28 stimulated interleukin-2 (IL-2) secretion.
(§4) The expression of IL-2 can then be accurately measured by HiBit luciferase assay. Further, C-CBL or CBL-B was knocked out by CRISPR respectively in this Jurkat HiBit-IL2 reporter cell line to create reporter cell line expressing CBL-B only (c-CBL knockout (KO)) or C-CBL only (CBL-B KO).
(§5) All three reporter cell lines were maintained in RPMI-1640 media with GlutaMax, 10% fetal bovine serum, 100 units/ml of penicillin, and 100 μg/ml of streptomycin at 37° C., 5% CO2, at a cell density 1×10e5-2×10e6 viable cells/ml. Serial diluted compounds in DMSO (40 nl/well, final 0.1% DMSO in assay cell culture) were plated into 384-well white-wall clear-bottom cell culture plates. Reporter cells were pelleted and resuspended in fresh cell culture medium to 0.66×10e6 cells/ml and added to the assay plate at 30 μl/well (20,000 cells/well). The cells were incubated with compounds for 1 hour at 37° C., 5% CO2. 10 μl/well of anti-CD3 antibody (OKT3) and anti-CD28 antibody (CD28.2) prediluted in fresh cell culture medium at 4× final concentration (anti-CD3 mAb: 4 μg/ml; anti-CD28 mAb: 8 μg/ml) was added into the cells (final concentration of anti-CD3 mAb: 1 μg/ml; anti-CD28 mAb: 2 μg/ml). The cells were cultured for another 4 hours at 37° C., 5% CO2. The Nano-Glo HiBiT Lytic Reagent was prepared following the manufacturer's protocol. 20 ul/well of the Nano-Glo HiBiT Lytic Reagent was added into the reporter cell culture assay plate and incubated at room temperature (20-25° C.) for 15 minutes. The plates were read on a Perkin-Elmer EnVision plate reader with 0.1 second integration time. Data were normalized to “Fold of Effect” with the anti-CD3 and anti-CD28 antibodies only samples as the baseline activation level and EC50 was calculated. The EC50 (nM) values reported are the geometric means (GMean) of the number of tests conducted.

[3] = target: T3, C-CBL (residues 46-435) (Homo sapiens, UniProt P22681); test: Ligand Displacement Assay (LDA), HTRF competitive binding against BODIPY-labeled fluorescent tracer, C-CBL; conditions: geometric mean of the number of tests, read-out: C-CBL Ki (nM) GMean
T3 construct: Purified CBL-B (residues 36-427) and C-CBL (residues 46-435) proteins from baculovirus-infected insect cells; made in house; host or cells: baculovirus-infected insect cells
T3 sequence (P22681 46-435): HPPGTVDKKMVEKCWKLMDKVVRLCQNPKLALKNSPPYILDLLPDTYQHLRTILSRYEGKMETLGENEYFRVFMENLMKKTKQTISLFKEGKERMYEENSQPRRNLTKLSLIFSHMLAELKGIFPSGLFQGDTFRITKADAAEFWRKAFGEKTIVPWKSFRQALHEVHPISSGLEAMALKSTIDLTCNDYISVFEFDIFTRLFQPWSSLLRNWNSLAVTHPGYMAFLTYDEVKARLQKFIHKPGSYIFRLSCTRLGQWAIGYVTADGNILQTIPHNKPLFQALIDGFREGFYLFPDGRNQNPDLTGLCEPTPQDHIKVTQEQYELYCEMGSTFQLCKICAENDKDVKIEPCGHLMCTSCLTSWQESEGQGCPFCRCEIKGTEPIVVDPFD
Procedure, shortened: as §1

[4] = target: T4, CBL-B (Homo sapiens, UniProt Q13191); test: Jurkat HiBit-IL2 assay (c-CBL KO), reporter cell line expressing CBL-B only; assay type: cell-based; conditions: geometric mean, read-out: C-CBL KO EC50 (nM) GMean
T4 construct: endogenous in cells; host or cells: Jurkat HiBit-IL2 reporter cells, C-CBL knocked out by CRISPR
Source text: as §2, §3, §4, §5

[5] = CBL-B KO (C-CBL only), anti-CD3/anti-CD28 stimulation 4 hours, Table 16a
[6] = CBL-B KO (expressing C-CBL only), Table 16b (further repetition)
[7] = C-CBL KO (expressing CBL-B only), Table 16b (further repetition)
[8] = c-CBL KO (CBL-B only), anti-CD3/anti-CD28 stimulation 4 hours, Table 16a

| Compound | Ki [1] [nM] | EC50 [2, 5] [nM] | EC50 [2, 6] [nM] | Ki [3] [nM] | EC50 [4, 7] [nM] | EC50 [4, 8] [nM] |
| --- | --- | --- | --- | --- | --- | --- |
| C[C@H](N[C@H]1CC[C@@H]1O)c1nc(C(F)(F)F)cc2c(-c3cccc([C@H](c4nncn4C)C4CCC4)c3)n[nH]c12 (single isomer, unassigned) [Example D21] | 5.4 | 420 | 1150 | 68.1 | 107 | 39 |
| C[C@@H](c1nc(C(F)(F)F)cc2c(-c3cccc([C@H](c4nncn4C)C4CCC4)c3)n[nH]c12)N1CC(C)(O)C1 (single isomer, unassigned) [Example D66] | 2.6 |  | 409 | 22.1 | 72 |  |
| C[C@@H](NC(C)(C)CO)c1nc(C(F)(F)F)cc2c(-c3cccc([C@H](c4nncn4C)C4CCC4)c3)n[nH]c12 (single isomer, unassigned) [Example D55] | 4.8 |  | 642 | 76.5 | 80 |  |
| C[C@H](CO)N[C@H](C)c1nc(C(F)(F)F)cc2c(-c3cccc([C@H](c4nncn4C)C4CCC4)c3)n[nH]c12 (single isomer, unassigned) [Example C44] | 2.2 | 253 | 356 | 25 | 60 | 21 |
| CC(NC[C@H](C)O)c1nc(C(F)(F)F)cc2c(-c3cccc([C@H](c4nncn4C)C4CCCCC4)c3)n[nH]c12 (single isomer, unassigned) [Example C100] | 2.8 |  | 1410 | 40.4 | 110 |  |
| CC(NCCO)c1nc(C(F)(F)F)cc2c(-c3cccc([C@H](c4nncn4C)C4CCCCC4)c3)n[nH]c12 (single isomer, unassigned) [Example C39] | 7.4 | 496 | 615 | 73.2 | 108 | 35 |
| CC(N[C@H]1CCC[C@@H]1O)c1nc(C(F)(F)F)cc2c(-c3cccc([C@H](c4nncn4C)C4CCCCC4)c3)n[nH]c12 (single isomer, unassigned) [Example C101] | 2.5 |  | 909 | 21 | 58 |  |
| C[C@@H](N[C@@H]1CC[C@H](O)C1)c1nc(C(F)(F)F)cc2c(-c3cccc([C@H](c4nncn4C)C4CCC4)c3)n[nH]c12 [Example C118, (1S,3R)-3-({(1R)-1-[3-{3-[(R)-cyclobutyl(4-methyl-4H-1,2,4-triazol-3-yl)methyl]phenyl}-5-(trifluoromethyl)-1H-pyrazolo[3,4-c]pyridin-7-yl]ethyl}amino)cyclopentanol] | 2.1 |  | 338 | 25.5 | 46 |  |
| C[C@@H](N[C@@H]1CC[C@H]1O)c1nc(C(F)(F)F)cc2c(-c3cccc([C@H](c4nncn4C)C4CCC4)c3)n[nH]c12 (single isomer, unassigned) [Example D24] | 2.2 | 285 | 452 | 22.3 | 58 | 22 |
| C[C@H](c1nc(C(F)(F)F)cc2c(-c3cccc([C@H](c4nncn4C)C4CCC4)c3)n[nH]c12)N1CC[C@H]1CO (single isomer, unassigned) [Example D65] | 13.7 |  | 1180 | 110 | 468 |  |
| CC(N[C@H](C)[C@H](C)O)c1nc(C(F)(F)F)cc2c(-c3cccc([C@H](c4nncn4C)C4CCC4)c3)n[nH]c12 (single isomer, unassigned) [Example C48] | 2.5 | 493 | 466 | 33 | 67 | 20 |
| C[C@H](NC(C)(C)CO)c1nc(C(F)(F)F)cc2c(-c3cccc([C@H](c4nncn4C)C4CCC4)c3)n[nH]c12 (single isomer, unassigned) [Example D17] | 1.4 | 270 | 552 | 33.2 | 43 | 19 |
| C[C@@H](c1nc(C(F)(F)F)cc2c(-c3cccc([C@H](c4nncn4C)C4CCC4)c3)n[nH]c12)N1CC[C@@H](O)C1 (single isomer, unassigned) [Example D68] | 15.2 |  | 1710 | 134 | 293 |  |
| CC(NCCO)c1nc(C(F)(F)F)cc2c(-c3cccc([C@H](c4nncn4C)C4CCC4)c3)n[nH]c12 (single isomer, unassigned) [Example C42] | 2.5 | 316 | 635 | 28.2 | 94 | 29 |
| C[C@@H](c1nc(C(F)(F)F)cc2c(-c3cccc([C@H](c4nncn4C)C4CCC4)c3)n[nH]c12)N1CC[C@H](O)C1 (single isomer, unassigned) [Example D71] | 1.3 |  | 434 | 13 | 77 |  |
| C[C@H](O)C(=O)N[C@@H](C)c1nc(C(F)(F)F)cc2c(-c3cccc([C@H](c4nncn4C)C4CCC4)c3)n[nH]c12 (single isomer, unassigned) [Example I3] | 0.8 | 17 | 15 | 0.7 | 6 | 3 |
| CC(NCCO)c1nc(C(F)(F)F)cc2c(-c3cccc([C@H](c4nncn4C)C4CCCCC4)c3)n[nH]c12 (single isomer, unassigned) [Example C40] | 7.1 | 1360 | 1560 | 95.9 | 214 | 47 |
